In ChEMBL document CHEMBL4627352, “New acrylamide-sulfisoxazole conjugates as dihydropteroate synthase inhibitors” (Bioorg Med Chem, 2020):
Values after ≈ are worked out from the molar mass of the structure shown. Active and inactive are the calls of the source. The rule behind the calls is not given here.

Key:
Streptococcus pneumoniae [1] = assay: Inhibition of DHPS in Streptococcus pneumoniae assessed as antibacterial activity by measuring inhibition zone at 5 mg/mL incubated for 24 hrs by disk diffusion method
Bacillus subtilis [2] = assay: Inhibition of DHPS in Bacillus subtilis assessed as antibacterial activity by measuring inhibition zone at 5 mg/mL incubated for 24 hrs by disk diffusion method
[3] = test system: Staphylococcus epidermidis; assay: Inhibition of DHPS in Staphylococcus epidermidis assessed as antibacterial activity by measuring inhibition zone at 5 mg/mL incubated for 24 hrs by disk diffusion method
Escherichia coli [4] = assay: Inhibition of DHPS in Escherichia coli assessed as antibacterial activity by measuring inhibition zone at 5 mg/mL incubated for 24 hrs by disk diffusion method
Proteus vulgaris [5] = assay: Inhibition of DHPS in Proteus vulgaris assessed as antibacterial activity by measuring inhibition zone at 5 mg/mL incubated for 24 hrs by disk diffusion method
Klebsiella pneumoniae [6] = assay: Inhibition of DHPS in Klebsiella pneumoniae assessed as antibacterial activity by measuring inhibition zone at 5 mg/mL incubated for 24 hrs by disk diffusion method
Streptococcus pneumoniae [7] = assay: Inhibition of DHPS in Streptococcus pneumoniae assessed as antibacterial activity by measuring inhibition of bacterial growth incubated for 24 hrs by microbroth dilution method
Bacillus subtilis [8] = assay: Inhibition of DHPS in Bacillus subtilis assessed as antibacterial activity by measuring inhibition of bacterial growth incubated for 24 hrs by microbroth dilution method
[9] = test system: Staphylococcus epidermidis; assay: Inhibition of DHPS in Staphylococcus epidermidis assessed as antibacterial activity by measuring inhibition of bacterial growth incubated for 24 hrs by microbroth dilution method
Escherichia coli [10] = assay: Inhibition of DHPS in Escherichia coli assessed as antibacterial activity by measuring inhibition of bacterial growth incubated for 24 hrs by microbroth dilution method
Proteus vulgaris [11] = assay: Inhibition of DHPS in Proteus vulgaris assessed as antibacterial activity by measuring inhibition of bacterial growth incubated for 24 hrs by microbroth dilution method
Klebsiella pneumoniae [12] = assay: Inhibition of DHPS in Klebsiella pneumoniae assessed as antibacterial activity by measuring inhibition of bacterial growth incubated for 24 hrs by microbroth dilution method
Aspergillus fumigatus [13] = assay: Inhibition of DHPS in Aspergillus fumigatus assessed as antifungal activity by measuring inhibition zone at 5 mg/mL incubated for 48 hrs by disk diffusion method
[14] = test system: Syncephalastrum racemosum; assay: Inhibition of DHPS in Syncephalastrum racemosum assessed as antifungal activity by measuring inhibition zone at 5 mg/mL incubated for 48 hrs by disk diffusion method
Geotrichum candidum [15] = assay: Inhibition of DHPS in Geotrichum candidum assessed as antifungal activity by measuring inhibition zone at 5 mg/mL incubated for 48 hrs by disk diffusion method
Aspergillus fumigatus [16] = assay: Inhibition of DHPS in Aspergillus fumigatus assessed as antifungal activity by measuring inhibition of fungal growth incubated for 48 hrs by microbroth dilution method
[17] = test system: Syncephalastrum racemosum; assay: Inhibition of DHPS in Syncephalastrum racemosum assessed as antifungal activity by measuring inhibition of fungal growth incubated for 48 hrs by microbroth dilution method
Geotrichum candidum [18] = assay: Inhibition of DHPS in Geotrichum candidum assessed as antifungal activity by measuring inhibition of fungal growth incubated for 48 hrs by microbroth dilution method
[19] = test system: Escherichia coli ATCC 25922; assay: Inhibition of DHPS in Escherichia coli ATCC 25922 assessed as inhibition of bacterial growth incubated for 24 hrs in presence of folate precursor, pABA by microbroth dilution method
[20] = test system: Escherichia coli ATCC 25922; assay: Inhibition of DHPS in Escherichia coli ATCC 25922 assessed as inhibition of bacterial growth incubated for 24 hrs in presence of folate dependent metabolite, methionine by microbroth dilution method
[21] = test system: Syncephalastrum racemosum; assay: Potency index, ratio of amphotericin B MIC to compound MIC for Syncephalastrum racemosum assessed as inhibition of DHPS-mediated fungal growth incubated for 48 hrs by microbroth dilution method
Aspergillus fumigatus [22] = assay: Potency index, ratio of sulfisoxazole MIC to compound MIC for Aspergillus fumigatus assessed as inhibition of DHPS-mediated fungal growth incubated for 48 hrs by microbroth dilution method
[23] = test system: Staphylococcus epidermidis; assay: Potency index, ratio of sulfisoxazole MIC to compound MIC for Staphylococcus epidermidis assessed as inhibition of DHPS-mediated bacterial growth incubated for 24 hrs by microbroth dilution method
Klebsiella pneumoniae [24] = assay: Potency index, ratio of sulfisoxazole MIC to compound MIC for Klebsiella pneumoniae assessed as inhibition of DHPS-mediated bacterial growth incubated for 24 hrs by microbroth dilution method
Escherichia coli [25] = assay: Potency index, ratio of sulfisoxazole MIC to compound MIC for Escherichia coli assessed as inhibition of DHPS-mediated bacterial growth incubated for 24 hrs by microbroth dilution method
Streptococcus pneumoniae [26] = assay: Potency index, ratio of sulfisoxazole MIC to compound MIC for Streptococcus pneumoniae assessed as inhibition of DHPS-mediated bacterial growth incubated for 24 hrs by microbroth dilution method
Geotrichum candidum [27] = assay: Potency index, ratio of sulfisoxazole MIC to compound MIC for Geotrichum candidum assessed as inhibition of DHPS-mediated fungal growth incubated for 48 hrs by microbroth dilution method

CN/C(S[C@@H]1O[C@H](COC(C)=O)[C@@H](OC(C)=O)[C@H](OC(C)=O)[C@H]1OC(C)=O)=C(/C#N)C(=O)Nc1ccc(S(=O)(=O)Nc2onc(C)c2C)cc1
inhibition zone (IZ) (Streptococcus pneumoniae [1]): 22.2 mm | inhibition zone (IZ) (Bacillus subtilis [2]): 23.4 mm | inhibition zone (IZ) [3]: 20.4 mm | inhibition zone (IZ) (Escherichia coli [4]): 20.2 mm | inhibition zone (IZ) (Proteus vulgaris [5]): 17.8 mm | inhibition zone (IZ) (Klebsiella pneumoniae [6]): 22.1 mm | MIC (Streptococcus pneumoniae [7]): 0.98 µg/mL (≈ 1.33 µM) | MIC (Bacillus subtilis [8]): 0.98 µg/mL (≈ 1.33 µM) | MIC [9]: 3.9 µg/mL (≈ 5.29 µM) | MIC (Escherichia coli [10]): 3.9 µg/mL (≈ 5.29 µM) | MIC (Proteus vulgaris [11]): 7.81 µg/mL (≈ 10.6 µM) | MIC (Klebsiella pneumoniae [12]): 0.98 µg/mL (≈ 1.33 µM) | inhibition zone (IZ) (Aspergillus fumigatus [13]): 19.3 mm | inhibition zone (IZ) [14]: 19.9 mm | inhibition zone (IZ) (Geotrichum candidum [15]): 21.2 mm | MIC (Aspergillus fumigatus [16]): 3.9 µg/mL (≈ 5.29 µM) | MIC [17]: 3.9 µg/mL (≈ 5.29 µM) | MIC (Geotrichum candidum [18]): 1.95 µg/mL (≈ 2.64 µM) | inhibition [19]: inactive | inhibition [20]: inactive | Ratio [21]: 1 | Ratio (Aspergillus fumigatus [22]): 4 to 6 | Ratio [23]: 2 | Ratio (Klebsiella pneumoniae [24]): 8 | Ratio (Escherichia coli [25]): 4 | Ratio (Streptococcus pneumoniae [26]): 2 | Ratio (Geotrichum candidum [27]): 3 to 5
